Where a name gives a salt, the structure may show the parent alone. Bounds are passed on as bounds.

Broadly, the IC50 is the concentration needed to halve the response being measured.

Holding throughout (format): biochemical
For experiment [1], the target named is human JAK1 (Homo sapiens, UniProt P23458). As to the kind of experiment: In vitro JAK kinase assay (HTRF, phosphorylation of a biotinylated peptide), JAK1. Details: key to JAK1 IC50 (nM): +indicates an IC50 of ≦100 nM; ++indicates an IC50 of ≦1000 nM; +++indicates an IC50 of ≦2000 nM; ++++indicates an IC50 of >2000 nM; +++++indicates that the IC50 was greater than the highest concentration tested. The following applies: 1 mM ATP. On the procedure: (§1) Compounds herein were tested for inhibitory activity of JAK targets according to the following in vitro assay described in Park et al., Analytical Biochemistry 1999, 269, 94-104. The catalytic domains of human JAK1 (a.a. 837-1142), JAK2 (a.a. 828-1132) and JAK3 (a.a. 781-1124) were expressed using baculovirus in insect cells and purified. The catalytic activity of JAK1, JAK2 or JAK3 was assayed by measuring the phosphorylation of a biotinylated peptide. The phosphorylated peptide was detected by homogenous time resolved fluorescence (HTRF). IC50s of compounds were measured for each kinase in the 40 μL reactions that contain the enzyme, ATP and 500 nM peptide in 50 mM Tris (pH 7.8) buffer with 100 mM NaCl, 5 mM DTT, and 0.1 mg/mL (0.01%) BSA. For the 1 mM IC50 measurements, ATP concentration in the reactions was 1 mM. Reactions were carried out at room temperature for 1 hour and then stopped with 20 μL 45 mM EDTA, 300 nM SA-APC, 6 nM Eu-Py20 in assay buffer (Perkin Elmer, Boston, Mass.). Binding to the Europium labeled antibody took place for 40 minutes and HTRF signal was measured on a PHERA star plate reader (BMG, Cary, N.C.). The Example compounds were each tested in the Example A assay (see Table 1 for data for the compounds of the examples as tested by the assay of Example A at 1 mM ATP).
Background: TR-FRET usually uses a lanthanide donor and a delayed reading to cut background.

The test system of experiment [2] is human JAK1. The experiment is described as above. Details: key to JAK1 IC50 (nM): +indicates an IC50 of ≦100 nM; ++indicates an IC50 of ≦1000 nM; +++indicates an IC50 of ≦2000 nM; ++++indicates an IC50 of >2000 nM; +++++indicates that the IC50 was greater than the highest concentration tested. The following applies: ratio of IC50s, 1 mM ATP. How it is done:
as §1

A further experiment addresses human JAK2 (Homo sapiens (Human), UniProt O60674). The experiment in a line: In vitro JAK kinase assay (HTRF, phosphorylation of a biotinylated peptide), JAK2. Details: key to JAK2 IC50 (nM): +indicates an IC50 of ≦100 nM; ++indicates an IC50 of ≦1000 nM; +++indicates an IC50 of ≦2000 nM; ++++indicates an IC50 of >2000 nM; +++++indicates that the IC50 was greater than the highest concentration tested. The note with it: 1 mM ATP. On the procedure: as §1

Chain of human JAK2 (O60674 828-1132): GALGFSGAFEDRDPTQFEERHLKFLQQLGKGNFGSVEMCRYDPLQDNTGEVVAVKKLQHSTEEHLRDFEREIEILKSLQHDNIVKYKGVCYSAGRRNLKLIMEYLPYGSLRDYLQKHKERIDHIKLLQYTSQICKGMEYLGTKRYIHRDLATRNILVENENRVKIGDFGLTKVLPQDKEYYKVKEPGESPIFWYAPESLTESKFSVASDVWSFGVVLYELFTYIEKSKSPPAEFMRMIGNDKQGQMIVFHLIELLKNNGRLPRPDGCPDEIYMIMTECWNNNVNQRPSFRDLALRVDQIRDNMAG

In the case of `N#CCc1nc2cnc3ccsc3c2n1[C@H]1CC[C@H](CC#N)OC1` [Example 73, {(2R,5S)-5-[2-(Cyanomethyl)-1H-imidazo[4,5-d]thieno[3,2-b]pyridin-1-yl]tetrahydro-2H-pyran-2-yl}acetonitrile], the IC50 at human JAK1 [1] is at most 100 nM; against human JAK2, at most 1000 nM. For the same molecule, in the experiment with human JAK1 [2], the JAK2/JAK1 was over 10.
Turning to `N#CC[C@H]1CC[C@H](n2c(C3CC3)nc3cnc4ccsc4c32)CC1` [Example 26, [trans-4-(2-Cyclopropyl-1H-imidazo[4,5-b]thieno[3,2-b]pyridin-1-yl)cyclohexyl]acetonitrile], the values for the IC50 against human JAK1 [1] and against human JAK2 were at most 100 nM and at most 1000 nM, respectively. Further, in the experiment on human JAK1 [2], the JAK2/JAK1 was over 10.
With `C[C@@H](O)c1nc2cnc3ccsc3c2n1[C@H]1CC[C@@H](CC#N)OC1` [Example 21, ((2S,5S)-5-{2-[(1R)-1-Hydroxyethyl]-1H-imidazo[4,5-d]thieno[3,2-b]pyridin-1-yl}tetrahydro-2H-pyran-2-yl)acetonitrile], the IC50 against human JAK1 [1] is at most 1000 nM. Further, the JAK2/JAK1 in the experiment with human JAK1 [2] is listed as over 10. Further, the “JAK2 IC50 (nM)” value on human JAK2 was “+++++”.
With `C[C@@H](O)c1nc2cnc3ccsc3c2n1[C@H]1CC[C@H](CNS(C)(=O)=O)CC1` [Example 80, N-[(trans-4-{2-[(1R)-1-Hydroxyethyl]-1H-imidazo[4,5-d]thieno[3,2-b]pyridin-1-yl}cyclohexyl)methyl]methanesulfonamide], the figures for the concentration for half-maximal inhibition (IC50) against human JAK1 [1] and against human JAK2 were at most 100 nM and at most 2000 nM, respectively. The JAK2/JAK1 with human JAK1 [2] is on record as over 10.
Take `CCC(=O)NC[C@H]1CC[C@H](n2c(CC#N)nc3cnc4ccsc4c32)CC1` [Example 89, N-({trans-4-[2-(Cyanomethyl)-1H-imidazo[4,5-d]thieno[3,2-b]pyridin-1-yl]cyclohexyl}methyl)propanamide]: the IC50 at human JAK1 [1] was at most 100 nM; on human JAK2, over 2000 nM. In the experiment on human JAK1 [2], the JAK2/JAK1 was over 10.
As for `CC(C)c1nc2cnc3ccsc3c2n1[C@H]1CC[C@H](CC#N)OC1` [Example 42, [(2R,5S)-5-(2-Isopropyl-1H-imidazo[4,5-d]thieno[3,2-b]pyridin-1-yl)tetrahydro-2H-pyran-2-yl]acetonitrile], the values for the IC50 on human JAK1 [1] and at human JAK2 were at most 100 nM and at most 1000 nM, respectively. Also, the JAK2/JAK1 in the experiment on human JAK1 [2] is listed as over 10.
On to `CN1CC(c2nc3cnc4ccsc4c3n2[C@H]2CC[C@H](CC#N)CC2)C1` [Example 29, {trans-4-[2-(1-Methylazetidin-3-yl)-1H-imidazo[4,5-d]thieno[3,2-b]pyridin-1-yl]cyclohexyl}acetonitrile], for which the concentration for half-maximal inhibition (IC50) was at most 1000 nM at human JAK1 [1] and at most 2000 nM against human JAK2. Further, in the experiment with human JAK1 [2], the JAK2/JAK1 is recorded as over 9.
For `C[C@@H](O)c1nc2cnc3ccsc3c2n1[C@H]1CCCN(C(=O)CCC#N)C1` [Example 58, 4-((3S)-3-{2-[(1R)-1-Hydroxyethyl]-1H-imidazo[4,5-d]thieno[3,2-b]pyridin-1-yl}piperidin-1-yl)-4-oxobutanenitrile], the 50% inhibitory concentration (IC50) on human JAK1 [1] was at most 100 nM. The JAK2/JAK1 in the experiment with human JAK1 [2] is given as over 10. In addition, on human JAK2, the “JAK2 IC50 (nM)” value is “+++++”.
On the same counts, the results for `C[C@@H](O)c1nc2cnc3ccsc3c2n1[C@H]1CC[C@@H](n2cncn2)CC1` [Example 6, (1R)-1-{1-[cis-4-(1H-1,2,4-Triazol-1-yl)cyclohexyl]-1H-imidazo[4,5-d]thieno[3,2-b]pyridin-2-yl}ethanol] are at most 2000 nM, over 6 and “+++++”.
As for `C[C@@H](O)c1nc2cnc3ccsc3c2n1[C@H]1CC[C@H](CNS(C)(=O)=O)OC1` [Example 75, N-[((2R,5S)-5-{2-[(1R)-1-Hydroxyethyl]-1H-imidazo[4,5-d]thieno[3,2-b]pyridin-1-yl}tetrahydro-2H-pyran-2-yl)methyl]methanesulfonamide], the IC50 is at most 100 nM at human JAK1 [1] and at most 2000 nM against human JAK2. For the same molecule, the JAK2/JAK1 in the experiment on human JAK1 [2] was over 10.
Consider `CC(F)c1nc2cnc3ccsc3c2n1[C@H]1CC[C@H](CC#N)OC1` (stereo partly drawn) [Example 71, {(2R,5S)-5-[2-(1-Fluoroethyl)-1H-imidazo[4,5-d]thieno[3,2-b]pyridin-1-yl]tetrahydro-2H-pyran-2-yl}acetonitrile], for which the IC50 against human JAK1 [1] is at most 100 nM; against human JAK2 it was at most 1000 nM. Besides, the JAK2/JAK1 in the experiment with human JAK1 [2] was over 10.
For `C[C@@H](O)c1nc2cnc3ccsc3c2n1C1CCNCC1F` (stereo partly drawn) [9 (1st peak), (1R)-1-[1-(3-Fluoropiperidin-4-yl)-1H-imidazo[4,5-d]thieno[3,2-b]pyridin-2-yl]ethanol], the “JAK1 IC50 (nM)” value on human JAK1 [1] is given as “+++++”. The “JAK2 IC50 (nM)” value at human JAK2 is listed as “+++++”.
Consider `Cc1nn2cnc3ccsc3c2c1[C@H]1CC[C@H](CC#N)CC1` [Example 77, [trans-4-(8-Methylpyrazolo[1,5-c]thieno[2,3-e]pyrimidin-9-yl)cyclohexyl]acetonitrile], for which the IC50 at human JAK1 [1] and on human JAK2 was at most 100 nM in each case.
In the case of “[(1R,2S,4S)-4-(2-Ethyl-1H-imidazo[4,5-d]thieno[3,2-b]pyridin-1-yl)-2-hydroxycyclohexyl]acetonitrile and [(1S,2R,4R)-4-(2-ethyl-1H-imidazo[4,5-d]thieno[3,2-b]pyridin-1-yl)-2-hydroxycyclohexyl]acetonitrile [40 (second peak)]”, on human JAK1 [1], the IC50 was over 2000 nM. For the same molecule, the “JAK2 IC50 (nM)” value on human JAK2 is given as “+++++”.
Regarding `Cc1nc2cnc3ccsc3c2n1[C@@H]1CC[C@@H](CC#N)[C@@H](O)C1` (mixture of isomers) [Example 34, Mixture of [(1R,2R,4S)-2-hydroxy-4-(2-methyl-1H-imidazo[4,5-d]thieno[3,2-b]pyridin-1-yl)cyclohexyl]acetonitrile trifluoroacetate and [(1S,2S,4R)-2-hydroxy-4-(2-methyl-1H-imidazo[4,5-d]thieno[3,2-b]pyridin-1-yl)cyclohexyl]acetonitrile trifluoroacetate], the JAK2/JAK1 in the experiment with human JAK1 [2] is over 10.
Turning to `C[C@@H](O)c1nc2cnc3ccsc3c2n1C1CCNCC1F` (single isomer, unassigned) [9 (2nd peak)], the JAK2/JAK1 in the experiment on human JAK1 [2] was over 10. Besides, the “JAK2 IC50 (nM)” value at human JAK2 is reported as “+++++”.
In the case of `C[C@@H](O)c1nc2cnc3ccsc3c2n1[C@H]1CCCN(C(=O)CCC(F)(F)F)C1` [Example 52, (1R)-1-{1-[(3S)-1-(4,4,4-Trifluorobutanoyl)piperidin-3-yl]-1H-imidazo[4,5-d]thieno[3,2-b]pyridin-2-yl}ethanol], the half-inhibitory concentration (IC50) at human JAK1 [1] is at most 1000 nM. In addition, the JAK2/JAK1 with human JAK1 [2] is on record as over 10.
For “[(1R,2S,4S)-4-(2-Methyl-1H-imidazo[4,5-d]thieno[3,2-b]pyridin-1-yl)-2-hydroxycyclohexyl]acetonitrile and [(1S,2R,4R)-4-(2-methyl-1H-imidazo[4,5-d]thieno[3,2-b]pyridin-1-yl)-2-hydroxycyclohexyl]acetonitrile [41 (second peak)]”, on human JAK1 [1], the IC50 is over 2000 nM. Further, the “JAK2 IC50 (nM)” value at human JAK2 is “+++++”.
With `CCc1nc2cnc3ccsc3c2n1[C@H]1CC[C@H](CC#N)[C@H](O)C1` (racemic) [Example 35], the results for the IC50 against human JAK1 [1] and on human JAK2 were at most 100 nM and over 2000 nM, respectively.
In the case of `C[C@@H](O)c1nc2cnc3ccsc3c2n1[C@H]1CC[C@H](CC#N)CC1` [Example 2, (trans-4-{2-[(1R)-1-Hydroxyethyl]-1H-imidazo[4,5-d]thieno[3,2-b]pyridin-1-yl}cyclohexyl)acetonitrile], the JAK2/JAK1 with human JAK1 [2] is on record as over 10.
`C[C@@H](O)c1nc2cnc3ccsc3c2n1C1CCC(O)(CC#N)CC1` (single isomer, unassigned) [24 (second peak)] showed an IC50 against human JAK1 [1] of at most 1000 nM.

Values taken from US9777017B2, “Tricyclic fused thiophene derivatives as JAK inhibitors” (Incyte Corporation, priority 2012, dated 2017).
